The record followed here is PubChem BioAssay (NCI).

Test systems include NCI-H226 lung; SNB-75 CNS; TK-10 renal; HCC-2998 colon; A498 renal; SF-539 CNS; DU-145 prostate; HS 578T breast; MDA-MB-231 breast.
Holding throughout (assay): NCI anticancer screen, dose series, 48 h

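In this assay, cells in 96-well plates receive the compound at five concentrations for 48 hours. Endpoints are linearly interpolated between the surrounding concentrations. GI50 is the concentration that inhibits growth by half. TGI is the concentration that stops growth completely.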 Bounds are passed on as bounds.

As to `CN=S(=O)(C[C@]1(O)CC2OC1C1OC(C)(C)OC21)c1ccccc1` (stereo not given in full), the TGI with NCI-H226 lung, with SNB-75 CNS, in the test on TK-10 renal, in the test on HCC-2998 colon, in the test with A498 renal and in the test on SF-539 CNS was above 100 µM in each case.
As for `CCC[CH2][Sn]([CH2]CCC)([S]C1=NCCS1)[S]C1=NCCS1`, the GI50 in the test with NCI-H226 lung is 0.741 µM; with SNB-75 CNS, 85.7 nM; in the test with TK-10 renal it was 0.39 µM; with HCC-2998 colon, 0.654 µM; in the test with A498 renal, 507 nM; in the test on SF-539 CNS it was 164 nM. Moreover, the TGI in the test on NCI-H226 lung stood at 2.12 µM; in the test on SNB-75 CNS, 1.39 µM; in the test on TK-10 renal, 1.11 µM; with HCC-2998 colon it was 1.94 µM; in the test with A498 renal, 1.31 µM; in the test on SF-539 CNS it was 0.449 µM.
Take `CCC(=C(c1ccc(OCc2ccccc2)cc1)c1ccc(OCc2ccccc2)cc1)c1ccc(OC)cc1`: the TGI in the test with NCI-H226 lung, in the test on SNB-75 CNS, with TK-10 renal, in the test on HCC-2998 colon and in the test with SF-539 CNS was above 100 µM each time.
As for `C=CCN(N=O)C(=O)N(CCC)CCCCC(NC(C)=O)C(=O)NCc1ccccc1` (stereo not given), the TGI in the test with NCI-H226 lung, in the test on SNB-75 CNS, in the test on TK-10 renal, in the test with A498 renal and with SF-539 CNS was above 100 µM in each case.
Turning to `O=C(CC1(O)C(=O)Nc2c(Cl)cc(Cl)cc21)c1ccc2ccccc2c1` (stereo not given), the TGI in the test on SNB-75 CNS amounted to 13.5 µM; with TK-10 renal, 27.9 µM; in the test on A498 renal, 24.8 µM; with SF-539 CNS, 21 µM.
In the case of `COC(=O)C1C(=O)O[C@@H](c2ccc(OC)cc2OC)C1C(=O)OC` (stereo not given in full), the TGI in the test on NCI-H226 lung, in the test with SNB-75 CNS, in the test on TK-10 renal, in the test with HCC-2998 colon, with A498 renal and with SF-539 CNS was above 100 µM throughout.
With `O=C(CC(=O)C(F)(F)F)c1csc2ccccc12`, the TGI with TK-10 renal is 28.4 µM; in the test on HCC-2998 colon it was above 100 µM; in the test on SF-539 CNS, above 100 µM.
For `COc1ccccc1NC(=O)C1=C(C)NC(C)=C(C(=O)Nc2ccccc2OC)C1c1ccccc1OC`, the TGI in the test on NCI-H226 lung was above 100 µM; with SNB-75 CNS, 69 µM; with TK-10 renal, above 100 µM; in the test on HCC-2998 colon it was above 100 µM; in the test on A498 renal, above 100 µM; in the test on SF-539 CNS it was above 100 µM.
Turning to `CC(=O)Nc1ccc(/C=C/C(=O)c2sc(C(N)=S)nc2C)cc1`, the TGI in the test with NCI-H226 lung, in the test on SNB-75 CNS, in the test with TK-10 renal, with HCC-2998 colon, in the test with A498 renal and in the test with SF-539 CNS was above 100 µM throughout.
Turning to `CCOC(=O)C1=C(C)N(NC(=O)c2ccccc2)C2(O)CCCC12C(=O)OCC` (stereo not given), the TGI in the test on NCI-H226 lung, in the test on SNB-75 CNS, with HCC-2998 colon, with A498 renal and in the test on SF-539 CNS was above 100 µM each time.
In the case of `Nc1nc(N)c(-c2ccc(Cl)cc2)c(CCC(=O)Nc2cccc(C(F)(F)F)c2)n1`, the TGI in the test with NCI-H226 lung, in the test with SNB-75 CNS, in the test on TK-10 renal, in the test on HCC-2998 colon, with A498 renal and in the test on SF-539 CNS was above 100 µM each time.
For `CC1C2=CC=C(O2)C(C)(C)C2=CC=C(O2)C(C)(C)C2=CC=C(O2)C(C)(C)C2=CC=C1O2`, the TGI with NCI-H226 lung, in the test with TK-10 renal, in the test on HCC-2998 colon, in the test on A498 renal and with SF-539 CNS was above 100 µM throughout.
As for `Cc1c(Cl)ccc2c1NC(=O)C2(O)C1Cc2ccccc2C1=O` (stereo not given), the TGI in the test with NCI-H226 lung, in the test with TK-10 renal, with HCC-2998 colon, with A498 renal and in the test on SF-539 CNS was above 100 µM in each case.
On to `CCOC(=O)c1c(Cl)c2c(n1Cc1cc(OC)cc(OC)c1)-c1oncc1CCC2`, for which the GI50 in the test on NCI-H226 lung is 6.84 µM; in the test on SNB-75 CNS, 229 nM; with TK-10 renal, 10.3 µM; in the test with DU-145 prostate it was 350 nM; in the test with HCC-2998 colon, 15.4 µM; with A498 renal, 79.7 nM. Further, the GI50 is 451 nM in the test with HS 578T breast and 812 nM in the test on MDA-MB-231 breast. The TGI with NCI-H226 lung was above 100 µM; in the test with SNB-75 CNS it was 4.41 µM; in the test with TK-10 renal it was above 100 µM; in the test with DU-145 prostate, 97.7 µM; in the test on HCC-2998 colon, above 100 µM; in the test on A498 renal it was 0.605 µM. Moreover, the TGI is above 100 µM in the test on HS 578T breast and above 91.7 µM in the test on MDA-MB-231 breast.
In the case of `CCCCCCCCCC(=O)OCC1OC(n2cc(F)c(=O)[nH]c2=O)C(N)C(OC(=O)CCCCCCCCC)C1O` (stereo not given), the TGI in the test with SNB-75 CNS is 34.4 µM; with TK-10 renal, above 100 µM; in the test with HCC-2998 colon, 33.3 µM; in the test with A498 renal it was 31.6 µM; in the test on SF-539 CNS it was 33.7 µM.
For the compound `COc1ccc(OC)c2cc(C3(C)SCCCS3)ccc12`, the TGI in the test on SNB-75 CNS, in the test on TK-10 renal, in the test on HCC-2998 colon, with A498 renal and in the test with SF-539 CNS was above 100 µM throughout.
As for `Cc1ccc2[nH]c(=O)c(C(C#N)c3ccccc3)nc2c1` (stereo not given), the TGI with NCI-H226 lung, in the test with SNB-75 CNS, with TK-10 renal, in the test with HCC-2998 colon, with A498 renal and with SF-539 CNS was above 100 µM each time.
On to `Cc1ccc(C2=NO[C@@H]3C(=O)N(c4ccc(Cc5ccc(N6C(=O)[C@H]7C(c8ccc(C)cc8)=NO[C@H]7C6=O)cc5)cc4)C(=O)[C@H]23)cc1`, for which the TGI in the test on NCI-H226 lung, in the test with SNB-75 CNS, in the test on TK-10 renal, with HCC-2998 colon, with A498 renal and in the test on SF-539 CNS was above 100 µM throughout.
Take `CCN(CC)c1ccc2c(c1)N=C1N=CC=CN1C2(c1ccc(N(C)C)cc1)c1ccc(N(C)C)cc1`: the TGI was 27.2 µM with NCI-H226 lung; 24.4 µM in the test on SNB-75 CNS; 28.6 µM with TK-10 renal; 13.2 µM in the test with HCC-2998 colon; 33.3 µM with A498 renal; 28.6 µM in the test on SF-539 CNS.
`CC1C(=O)N(C)C2(CO)C(=O)O[C@H](C)C12O` (stereo not given in full): the TGI with TK-10 renal, in the test on HCC-2998 colon and in the test on SF-539 CNS was above 100 µM each time.
`O=C(O)/C(Cl)=C(\Cl)C(=O)Nc1ccccc1`: the TGI with NCI-H226 lung, in the test on SNB-75 CNS, with TK-10 renal, in the test on HCC-2998 colon, in the test with A498 renal and in the test with SF-539 CNS was above 100 µM throughout.
Regarding `O=C(C=Nc1ccccc1C(=O)[O-])c1cccs1.O=C(C=Nc1ccccc1C(=O)[O-])c1cccs1.[Cu+2]`, the TGI with SNB-75 CNS is above 10 µM; in the test on TK-10 renal, above 100 µM; with HCC-2998 colon, above 100 µM; in the test on A498 renal it was above 100 µM.
`COC(=O)C(=O)C(C(=O)C(=O)Nc1cc([N+](=O)[O-])ccc1[N+](=O)[O-])c1nc2ccc(C(=O)c3ccccc3)cc2[nH]c1=O` (stereo not given): the TGI in the test with NCI-H226 lung is 89 µM; in the test on HCC-2998 colon, above 100 µM; with A498 renal it was 63.4 µM; with SF-539 CNS, above 100 µM.
`CSC(=S)NNC(=O)c1ccncc1`: the TGI is 52.6 µM in the test on NCI-H226 lung; 65.7 µM in the test with SNB-75 CNS; 75.6 µM with TK-10 renal; 38.1 µM in the test on HCC-2998 colon; above 100 µM in the test on A498 renal; 48.9 µM in the test on SF-539 CNS.
Take `CC1OC(O)CC(OC(=O)c2ccccc2)C1OC(=O)c1ccccc1` (stereo not given): the TGI in the test with TK-10 renal was above 100 µM; in the test with HCC-2998 colon, above 100 µM; with A498 renal, above 100 µM; in the test on SF-539 CNS, 31.7 µM.
`COC(=O)C1=CC2OC1(C)C1(CC1)C2=O` (stereo not given): the TGI with NCI-H226 lung is 43.5 µM; in the test with SNB-75 CNS, 50 µM; in the test with HCC-2998 colon, 34.2 µM; in the test on SF-539 CNS, 32.1 µM.
Turning to `O=C1c2ccccc2C(=O)c2nc(-c3ccccc3)c(-c3ccccc3)nc21`, the TGI was above 31.6 µM in the test with NCI-H226 lung; 29.2 µM with SNB-75 CNS; above 100 µM with TK-10 renal; above 100 µM in the test with HCC-2998 colon; above 93.6 µM in the test on A498 renal; above 100 µM with SF-539 CNS.
Regarding `CC12CC3CC(C)(C1)CC(N=[N+]=[N-])(C3)C2`, the TGI in the test with NCI-H226 lung, in the test on SNB-75 CNS, in the test with TK-10 renal, with HCC-2998 colon, with A498 renal and in the test with SF-539 CNS was above 100 µM in each case.
With `COc1ccc2c(c1)[n+]([O-])c(-c1nc3ccccc3s1)c(N)[n+]2[O-]`, the TGI in the test on NCI-H226 lung, with SNB-75 CNS, in the test with A498 renal and in the test on SF-539 CNS was above 100 µM throughout.
